The values below are quoted from earlier work in PMC4224523 (Molecular Pharmaceutics, 2014).

The conditions of this data set: general statement in introduction.

Consider `FC1(F)OC(F)(F)C(F)(F)OC(F)(F)C(F)(F)OC(F)(F)C(F)(F)OC(F)(F)C(F)(F)OC1(F)F` [PFCE, Perfluoro-15-crown-5-ether], for which the solubility in solvents result was “insoluble in most solvents”.
